According to the NIST ThermoML archive (doi:10.1016/j.jct.2013.12.016):
± gives the expanded uncertainty stated by the source.

Key:
[1] = DTA
[2] = Molar enthalpy of transition or fusion; settings: DSC

Triple point temperature ([1]; Crystal) [K]	Molar enthalpy of transition or fusion ([2]; Crystal) [kcal/mol]	Triple point temperature ([1]; Crystal 1) [K]	Triple point temperature ([1]; Crystal 2) [K]	Molar enthalpy of transition or fusion ([2]; Crystal 1) [kcal/mol]	Molar enthalpy of transition or fusion ([2]; Crystal 2) [kcal/mol]	Structure (SMILES)
482.02 ± 0.39	6.48 ± 0.143	–	–	–	–	CC[C@H](C)[C@H](NC(C)=O)C(=O)NC (racemic) [N-acetyl-N'-methyl-DL-isoleucinamide]
434.83 ± 0.4	5.91 ± 0.134	–	–	–	–	CCC(NC(C)=O)C(=O)NC (stereo unspecified) [2-acetamido-N-methylbutanamide]
525.72 ± 0.39	9.11 ± 0.21	–	–	–	–	CC[C@H](C)[C@H](NC(C)=O)C(=O)NC [(2S,3S)-2-acetamido-N,3-dimethylpentanamide]
438.2 ± 0.39	5.54 ± 0.127	–	–	–	–	CNC(=O)[C@H](CC(C)C)NC(C)=O [(S)-2-acetamido-N,4-dimethylpentanamide]
–	–	454.8 ± 0.39	395.07 ± 0.41	5.94 ± 0.134	1.34 ± 0.0454	CNC(=O)[C@H](C)NC(C)=O [(S)-2-acetamido-N-methylpropanamide]

The remaining lines, values behind:

Structure (SMILES)	Triple point temperature ([1]; Crystal) [K]	Molar enthalpy of transition or fusion ([2]; Crystal) [kcal/mol]	Triple point temperature ([1]; Crystal 1) [K]	Triple point temperature ([1]; Crystal 2) [K]	Molar enthalpy of transition or fusion ([2]; Crystal 1) [kcal/mol]	Molar enthalpy of transition or fusion ([2]; Crystal 2) [kcal/mol]
CCCC(NC(C)=O)C(=O)NC (racemic) [N-acetyl-N'-methyl-DL-norvalinamide]	432.29 ± 0.39	6.27 ± 0.143	–	–	–	–
CNC(=O)C1CCCN1C(C)=O (stereo unspecified) [1-acetyl-N-methylprolinamide]	378.12 ± 0.39	6.23 ± 0.139	–	–	–	–
CNC(=O)CNC(C)=O [2-acetamido-N-methylacetamide]	430.73 ± 0.39	5.65 ± 0.129	–	–	–	–
CCCCC(NC(C)=O)C(=O)NC (stereo unspecified) [2-acetamido-N-methylhexanamide]	444 ± 0.39	8.21 ± 0.177	–	–	–	–
CNC(=O)C(C)NC(C)=O (stereo unspecified) [2-acetamido-N-methylpropanamide]	–	–	411.9 ± 2	368.43 ± 0.39	3.8 ± 0.115	1.84 ± 0.0765
CNC(=O)[C@@H]1CCCN1C(C)=O [(2S)-1-acetyl-N-methyl-2-pyrrolidinecarboxamide]	375.85 ± 0.39	5.96 ± 0.134	–	–	–	–
